Laboratory results taken from US8703771B2, “Preparation method of dihydroindene amide compounds, their pharmaceutical compositions containing compounds thereof and use as protein kinases inhibitor” (Harbin Gloria Pharmaceuticals Co., Ltd., priority 2008, dated 2014).
Counter-ions that a name gives are not always drawn. Like-named read-outs stand apart in the source and are kept apart here.

What was measured:
c-Kit [1] = target: T1, c-Kit (Homo sapiens (Human), UniProt P10721); assay: Mobility Shift Assay of c-Kit kinase enzyme activity; assay type: biochemical; details: ATP at Km 87 μM, 40 minutes at 28° C., pre-activated c-Kit
T1 sequence (P10721 26-976): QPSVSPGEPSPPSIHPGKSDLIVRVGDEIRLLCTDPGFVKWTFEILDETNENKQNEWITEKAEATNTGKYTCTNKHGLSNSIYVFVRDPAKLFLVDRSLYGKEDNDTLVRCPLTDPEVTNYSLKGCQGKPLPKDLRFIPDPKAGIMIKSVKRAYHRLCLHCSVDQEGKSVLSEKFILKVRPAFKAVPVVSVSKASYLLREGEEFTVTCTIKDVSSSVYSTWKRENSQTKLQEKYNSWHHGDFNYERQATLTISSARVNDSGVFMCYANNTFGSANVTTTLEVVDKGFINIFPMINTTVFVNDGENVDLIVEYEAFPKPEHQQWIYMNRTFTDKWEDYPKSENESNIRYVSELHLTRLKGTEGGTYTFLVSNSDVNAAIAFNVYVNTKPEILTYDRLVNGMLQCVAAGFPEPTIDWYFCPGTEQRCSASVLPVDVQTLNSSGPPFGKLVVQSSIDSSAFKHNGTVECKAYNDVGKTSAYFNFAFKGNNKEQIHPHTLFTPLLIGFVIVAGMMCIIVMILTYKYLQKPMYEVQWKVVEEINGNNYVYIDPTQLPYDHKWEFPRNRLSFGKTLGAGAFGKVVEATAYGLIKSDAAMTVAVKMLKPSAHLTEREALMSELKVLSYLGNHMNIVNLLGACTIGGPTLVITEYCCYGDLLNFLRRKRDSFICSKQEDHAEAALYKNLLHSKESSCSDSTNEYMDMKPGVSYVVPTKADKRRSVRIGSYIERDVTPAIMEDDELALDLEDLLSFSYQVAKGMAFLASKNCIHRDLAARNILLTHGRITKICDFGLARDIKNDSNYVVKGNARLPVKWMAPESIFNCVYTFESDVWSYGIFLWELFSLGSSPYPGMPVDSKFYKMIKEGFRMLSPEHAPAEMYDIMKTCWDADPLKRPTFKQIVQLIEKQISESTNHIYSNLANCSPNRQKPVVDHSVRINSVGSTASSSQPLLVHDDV
Experimental: (§1) The activity of the compounds of this invention on Abl, c-Kit and PDGFR kinases was tested by Mobility Shift Assay (MSA).
(§2) • 1. Preparation of kinase buffer and stop buffer;
(§3) The compound was dissolved in DMSO and then serial dilutions were prepared; • 3. Preparation of kinase solution: Kinase solution was obtained by dissolving kinases in the kinase buffer mentioned above. With regard to c-Kit kinase, the pre-activation treatments should be carried out as follows. 700 nM c-Kit, 2 mM ATP, 4 mM DTT and 10 mM MgCl2 were dissolved in kinase buffer. After being incubated at 28° C. for 15 minutes, the solution was added to the kinase buffer; • 4. Preparation of polypeptide solution: Polypeptide FAM and ATP were dissolved in kinase buffer; • 5. The kinase solution was transferred to a culture plate and incubated for 10 minutes at room temperature. […] The polypeptide solution was transferred to the culture plate. […] The final concentrations of MgCl2 in all circumstances were all 10 mM; • 7. The mixture in each well of the plate was incubated at 28° C., for 1 hour for Abl, 40 minutes for c-Kit and 5 hours for PDGFR. The stop buffer was then added to terminate the reaction; • 8. Data were collected in Caliper and then input into the software XLfit to calculate IC50 values.

PDGFR (Homo sapiens) = assay: Mobility Shift Assay of PDGFR kinase enzyme activity; assay type: biochemical; details: ATP at Km 38 μM, 5 hours at 28° C.
Sequence of PDGFR (Homo sapiens) (P09619 33-1106 limits assumed): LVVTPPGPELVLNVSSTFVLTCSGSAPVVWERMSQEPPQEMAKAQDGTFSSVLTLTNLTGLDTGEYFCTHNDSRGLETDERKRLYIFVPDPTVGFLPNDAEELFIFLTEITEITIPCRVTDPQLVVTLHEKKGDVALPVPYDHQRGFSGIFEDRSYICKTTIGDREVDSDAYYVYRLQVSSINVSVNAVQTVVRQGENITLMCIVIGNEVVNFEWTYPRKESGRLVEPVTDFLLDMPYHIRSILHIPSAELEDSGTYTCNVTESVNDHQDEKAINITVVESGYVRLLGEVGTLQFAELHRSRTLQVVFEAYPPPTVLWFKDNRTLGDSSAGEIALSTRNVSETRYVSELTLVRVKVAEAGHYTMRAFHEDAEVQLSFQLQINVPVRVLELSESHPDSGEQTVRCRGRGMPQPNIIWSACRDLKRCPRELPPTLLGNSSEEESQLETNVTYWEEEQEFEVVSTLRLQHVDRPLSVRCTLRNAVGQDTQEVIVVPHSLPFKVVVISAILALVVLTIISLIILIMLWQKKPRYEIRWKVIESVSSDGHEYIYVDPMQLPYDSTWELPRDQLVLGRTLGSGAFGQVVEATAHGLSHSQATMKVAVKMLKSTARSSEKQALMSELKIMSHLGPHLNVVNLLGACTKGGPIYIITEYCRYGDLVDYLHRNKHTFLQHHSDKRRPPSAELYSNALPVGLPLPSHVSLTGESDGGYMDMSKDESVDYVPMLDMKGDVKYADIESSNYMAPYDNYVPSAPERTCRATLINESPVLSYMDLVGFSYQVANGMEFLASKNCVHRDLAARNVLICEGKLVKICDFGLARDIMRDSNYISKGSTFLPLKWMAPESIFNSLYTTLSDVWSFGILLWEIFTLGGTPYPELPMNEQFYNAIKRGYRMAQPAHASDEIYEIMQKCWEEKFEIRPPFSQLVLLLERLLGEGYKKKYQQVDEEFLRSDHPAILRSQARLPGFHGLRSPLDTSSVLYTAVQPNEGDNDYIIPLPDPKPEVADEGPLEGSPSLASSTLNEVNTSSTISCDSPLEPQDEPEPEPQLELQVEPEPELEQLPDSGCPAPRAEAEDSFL
Experimental: as §1, §2, §3

[2] = test system: chronic myeloid leukaemia cell K562; assay: cells; details: Homo sapiens, K562, 72 h, read-out: IC50 (nM) inhibition of K562 cell growth
c-Kit (V560G) = c-Kit (V560G) (Homo sapiens (Human), UniProt P10721, V560G); assay: 33P-ATP kinase assay, c-Kit (V560G); assay type: biochemical; details: 33P-ATP assay; ATP concentration 30 μM
Sequence of c-Kit (V560G) (P10721 26-976 V560G): as the sequence (P10721 26-976) above, with V535G counted along it
Experimental: (§4) Inhibitory activity of the compounds of this invention on Abl, c-Kit and PDGFR mutant kinases was tested by the phosphor isotope-labelled ATP (^33P-ATP) assay. • 1. Substrate solution was prepared using newly-prepared reaction buffer. The buffer includes: 20 mM HEPES, pH 7.5, 10 mM MgCl2, 1 mM EGTA, 0.02% Brij 35, 0.02 mg/ml BSA, 0.1 mM Na3VO4, 2 mM DTT, 1% DMSO. […] Required co-enzymes were added to the above substrate solution; • 3. Kinases were added and mixed gently; • 4. The tested compound was dissolved in DMSO, and then added to the above kinase solution by using Acoustic technique (Echo550, nanoliter range) and incubated for 20 minutes; • 5. ^33P-ATP was added to the above reaction mixture to initiate the reaction; • 6. The mixture was incubated for 2 hours at room temperature; • 7. The activity of kinases was tested by filtration-combination; • 8. The data were processed in Excel and the control data were subtracted. A curve was drawn by the GraphPad Prism software to get the IC50 value.

c-Kit (T670I) = c-Kit (T670I) (Homo sapiens (Human), UniProt P10721, T670I); assay: 33P-ATP kinase assay, c-Kit (T670I); assay type: biochemical; details: 33P-ATP assay; ATP concentration 30 μM
Sequence of c-Kit (T670I) (P10721 26-976 T670I): as the sequence (P10721 26-976) above, with T645I counted along it
Experimental: as §4

c-Kit [3] = target: T1, c-Kit; assay: 33P-ATP kinase assay, c-Kit; assay type: biochemical; details: 33P-ATP assay; ATP concentration 30 μM; 2 mM MnCl2 in buffer
Experimental: as §4

c-Kit (D816H) = c-Kit (D816H) (Homo sapiens (Human), UniProt P10721, D816H); assay: 33P-ATP kinase assay, c-Kit (D816H); assay type: biochemical; details: 33P-ATP assay; ATP concentration 30 μM
Sequence of c-Kit (D816H) (P10721 26-976 D816H): as the sequence (P10721 26-976) above, with D791H counted along it
Experimental: as §4

c-Kit (D816V) = c-Kit (D816V) (Homo sapiens (Human), UniProt P10721, D816V); assay: 33P-ATP kinase assay, c-Kit (D816V); assay type: biochemical; details: 33P-ATP assay; ATP concentration 30 μM
Sequence of c-Kit (D816V) (P10721 26-976 D816V): as the sequence (P10721 26-976) above, with D791V counted along it
Experimental: as §4

c-Kit (V654A) = c-Kit (V654A) (Homo sapiens (Human), UniProt P10721, V654A); assay: 33P-ATP kinase assay, c-Kit (V654A); assay type: biochemical; details: 33P-ATP assay; ATP concentration 30 μM; 2 mM MnCl2 in buffer
Sequence of c-Kit (V654A) (P10721 26-976 V654A): as the sequence (P10721 26-976) above, with V629A counted along it
Experimental: as §4

[4] = test system: chronic myeloid leukaemia cell MEG-01; assay: MTS growth inhibition assay, MEG-01 cell strain; assay type: cell-based; details: MTS/PMS, 72 hours
Experimental: (§5) This invention also tested the inhibitory activity of the compounds of this invention on the growth of chronic myeloid leukaemia cell K562, KU812, and MEG-01, acute myeloid leukaemia cell Kasumi-1 and acute lymphatic leukemia cell Sup-B15.
(§6) 1. Preparation of Assay Solution
(§7) (1) Preparation of PMS solution: PMS was dissolved in DPBS to give a concentration of […]. The solution was then filtered into a sterile and lightproof container;
(§8) (2) Preparation of MTS solution: a) 21 ml DPBS was added to a lightproof container; b) 42 mg MTS powder was weighted and then added to DPBS; c) the above were mixed on a electromagnetic stirrer until the powder was dissolved; d) the pH value was measured. […] If the pH was higher than 6.5, it should be adjust to 6.5 with 1 N HCl; e) the solution was filtered into a sterile and lightproof container; (3) Preparation of MTS/PMS mixture: a) 2 ml of the MTS solution was transferred to a tube; b) 100 μL of the PMS solution was added to the tube; c) the tube was vortexed gently to mix the solution thoroughly. 2. […] 3. […] 4.

[5] = test system: chronic myeloid leukaemia cell KU812; assay: MTS growth inhibition assay, KU812 cell strain; assay type: cell-based; details: MTS/PMS, 72 hours
Experimental: as §5, §6, §7, §8

[6] = test system: acute myeloid leukaemia cell Kasumi-1; assay: MTS growth inhibition assay, Kasumi-1 cell strain; assay type: cell-based; details: Homo sapiens, MTS/PMS, 72 hours
Experimental: as §5, §6, §7, §8

[7] = test system: acute lymphatic leukemia cell Sup-B15; assay: MTS growth inhibition assay, Sup-B15 cell strain; assay type: cell-based; details: MTS/PMS, 72 hours
Experimental: as §5, §6, §7, §8

[8] = test system: chronic myeloid leukaemia cell K562; assay: MTS growth inhibition assay, K562 cell strain; assay type: cell-based; details: Homo sapiens, MTS/PMS, 72 hours
Experimental: as §5, §6, §7, §8

[9] = test system: chronic myeloid leukaemia cell K562; details: read-out: IC50 (nM) inhibition of K562 cell growth; CellTiter-Glo; 72 hours

Row | SMILES | IC50 (c-Kit [1]) [nM] | IC50 (PDGFR (Homo sapiens)) [nM] | also measured
1 | Cc1ccc(NC(=O)c2ccc3c(c2)CCC3N2CCN(C)CC2)cc1Nc1nccc(-c2cncnc2)n1 (stereo not shown) [EXAMPLE 8, N-[3-(4,5′-bipyrimidine-2-ylamino)-4-methylphenyl]-1-(4-methylpiperazin-1-yl)-2,3-dihydro-1H-indene-5-carboxamide] | 32 | 22 | 
2 | Cc1ccc(NC(=O)c2ccc3c(c2)CC[C@H]3N2CCN(C)CC2)cc1Nc1nccc(-c2cccnc2)n1 [EXAMPLE 12, (1R)-1-(4-methylpiperazin-1-yl)-N-(4-methyl-3-[(4-pyridin-3-ylpyrimidin-2-yl)amino]phenyl)-2,3-dihydro-1H-indene-5-carboxamide] | 2250 | 53 | IC50 [2]: 208 nM
3 | CC(=O)N1CCN(C2CCc3cc(C(=O)Nc4ccc(C)c(Nc5nccc(-c6cccnc6)n5)c4)ccc32)CC1 (stereo not shown) [EXAMPLE 7, 1-[4-acetylpiperazin-1-yl)-N-(4-methyl-3-[(4-pyridin-3-ylpyrimidin-2-yl)amino]phenyl)-2,3-dihydro-1H-indene-5-carboxamide] | 529 | 41 | 
4 | Cc1ccc(NC(=O)c2ccc3c(c2)CC[C@@H]3N2CCN(C)CC2)cc1Nc1nccc(-c2ccncc2)n1 [EXAMPLE 15, (1S)-1-(4-methylpiperazin-1-yl)-N-(4-methyl-3-[(4-pyridin-4-ylpyrimidin-2-yl)amino]phenyl)-2,3-dihydro-1H-indene-5-carboxamide] | 526 | 24 | IC50 [2]: 35 nM
5 | Cc1ccc(NC(=O)c2ccc3c(c2)CCC3N2CCN(C)CC2)cc1Nc1nccc(-c2cccnc2)n1 (stereo not shown) [EXAMPLE 1, 1-(4-methylpiperazin-1-yl)-N-(4-methyl-3-[(4-pyridin-3-ylpyrimidin-2-yl)amino]phenyl)-2,3-dihydro-1H-inden-5-carboxamide] | 22 | 17 | 
6 | Cc1ccc(NC(=O)c2ccc3c(c2)CCC3N2CCNCC2)cc1Nc1nccc(-c2cccnc2)n1 (stereo not shown) [EXAMPLE 3, N-(4-methyl-3-[(4-pyridin-3-ylpyrimidin-2-yl)amino]phenyl)-1-piperazin-1-yl-2,3-dihydro-1H-indene-5-carboxamide] | 16 |  | 
7 | Cc1ccc(NC(=O)c2ccc3c(c2)CC[C@@H]3N2CCN(C)CC2)cc1Nc1nccc(-c2cccnc2)n1 [EXAMPLE 11, (1S)-1-(4-methylpiperazin-1-yl)-N-(4-methyl-3-[(4-pyridin-3-ylpyrimidin-2-yl)amino]phenyl)-2,3-dihydro-1H-indene-5-carboxamide] | 8.5 | 9.6 | IC50 (c-Kit (V560G)): 1.77 nM; IC50 (c-Kit (T670I)): 2060 nM; IC50 (c-Kit [3]): 132 nM; IC50 (c-Kit (D816H)): 83.6 nM; IC50 [2]: 3.2 nM; IC50 (c-Kit (D816V)): 1740 nM; IC50 (c-Kit (V654A)): 969 nM
8 | Cc1ccc(NC(=O)c2ccc3c(c2)CC[C@@H]3N2CCN(C)CC2)cc1Nc1nccc(-c2cncnc2)n1 [EXAMPLE 13, (1S)—N-[3-(4,5′-bipyrimidin-2-ylamino)-4-methylphenyl]-1-(4-methylpiperazin-1-yl)-2,3-dihydro-1H-indene-5-carboxamide] | 15 | 13 | IC50 [2]: 2.2 nM
9 | Cc1ccc(NC(=O)c2ccc3c(c2)CC[C@H]3N2CCN(C)CC2)cc1Nc1nccc(-c2cncnc2)n1 [EXAMPLE 14, (1R)—N-[3-(4,5′-bipyrimidin-2-ylamino)-4-methylphenyl]-1-(4-methylpiperazin-1-yl)-2,3-dihydro-1H-indene-5-carboxamide] | 2260 | 65 | 
10 | Cc1ccc(NC(=O)c2ccc3c(c2)CCC3N2CC[C@H](N(C)C)C2)cc1Nc1nccc(-c2cccnc2)n1 (stereo partly drawn) [EXAMPLE 9, 1-[(3S)-3-(dimethylamino)pyrrolidin-1-yl]-N-{4-methyl-3-[(4-pyridin-3-ylpyrimidin-2-yl)amino]phenyl}-2,3-dihydro-1H-indene-5-carboxamide] | 51 | 15 | 
11 | Cc1cn(-c2cc(NC(=O)c3ccc(C)c(Nc4nccc(-c5cccnc5)n4)c3)cc(C(F)(F)F)c2)cn1 [Nilotinib] |  |  | IC50 ([4]; Homo sapiens, MEG-01): 1.65 nM; IC50 ([5]; Homo sapiens, KU812): 2.1 nM; IC50 [6]: 22.3 nM; IC50 ([7]; Homo sapiens, SUP-B15): 135 nM; IC50 [8]: 6.26 nM
12 | CN[C@@H]1C[C@H]2O[C@@](C)([C@@H]1OC)n1c3ccccc3c3c4c(c5c6ccccc6n2c5c31)C(=O)NC4 [Staurosporine] |  |  | IC50 [4]: 8.97 nM; IC50 [5]: 9.57 nM; IC50 [7]: 6.84 nM; IC50 [9]: 139 nM
13 | Cc1ccc(NC(=O)c2ccc3c(c2)CC[C@@H]3N2CCN(C)CC2)cc1Nc1nccc(-c2cccnc2)n1 [EXAMPLE 16, (1S)-1-(4-methylpiperazin-1-yl)-N-(4-methyl-3-[(4-pyridin-3-ylpyrimidin-2-yl)amino]phenyl)-2,3-dihydro-1H-indene-5-carboxamide sulfate] |  |  | IC50 ([4]; Homo sapiens, MEG-01): 0.085 nM; IC50 ([5]; Homo sapiens, KU812): 0.024 nM; IC50 [6]: 11.2 nM; IC50 ([7]; Homo sapiens, SUP-B15): 39.6 nM; IC50 [8]: 0.25 nM
14 | Cc1ccc(NC(=O)c2ccc3c(c2)CCC3N2CCN(C(=O)OC(C)(C)C)CC2)cc1Nc1nccc(-c2cccnc2)n1 (stereo not shown) [EXAMPLE 2, tert-butyl 4-{5-[({4-methyl-3-[(4-pyridin-3-ylpyrimidin-2-yl)amino]phenyl}amino)carbonyl)-2,3-dihydro-1-H-inden-1-yl}piperazin-1-carboxylate] | 1190 | 233 | 
15 | Cc1ccc(NC(=O)c2ccc3c(c2)CCC3N2CCN(CCO)CC2)cc1Nc1nccc(-c2cccnc2)n1 (stereo not shown) [EXAMPLE 6] | 32 | 20 | 
16 | Cc1ccc(NC(=O)c2ccc3c(c2)CCC3N2CCN(C(C)C)CC2)cc1Nc1nccc(-c2cccnc2)n1 (stereo not shown) [EXAMPLE 5, 1-(4-isopropylpiperazin-1-yl)-N-(4-methyl-3-[(4-pyridin-3-ylpyrimidin-2-yl)amino]phenyl)-2,3-dihydro-1H-indene-5-carboxamide] | 23 | 18 | 
